Source: patent US9782472B2, “Therapeutic compositions and methods for treating HIV including identification and manipulation of particular domains associated with immunogenicity” (The Regents of The University of California, priority 2008, dated 2017)

How the values were obtained:
Assay type in all cases: cell-based, HIV-1
108051_005 wtR = test system: 108051_005 wtR
Text: (§1) Construction of envelope gene libraries and pseudoviruses. Libraries of envelope glycoprotein were created from each subject by PCR amplification of full length envelope genes from cryopreserved plasma using the method described previously. The swarm of PCR products was cloned into a plasmid expression vector useful for the construction of pseudoviruses. The vector was specifically designed to permit the construction of pseudovirus libraries for use in a well-established and validated virus neutralization assay. However, instead of pooling all of the clones together and carrying out neutralization assays or drug sensitivity assays with an entire library of cloned genes from each infected individual as had been done previously, we plated out the plasmid library on agar plates and picked 24-48 clones from each individual for infectivity studies. The plasmid DNA was isolated from each clone and used to create a stock of pseudovirus particles that were then screened for infectivity, and chemokine receptor usage. After verifying infectivity and receptor usage, we then selected approximately ten CCR5-dependent pseudotype viruses with good infectivity for virus neutralization assays. The virus neutralization assays were carried out as described by Schweighardt et al.
(§2) Virus neutralization assay. The automated virus neutralization assay described in this study has been described previously. The neutralization data reported represent IC50 values calculated from serum dilution curves. This assay employs multiple assay controls, including a positive pseudotype virus control panel and a negative pseudotype virus control panel. Assay acceptability criteria have been established to minimize interassay variability and assure comparability of data from different experiments. The positive virus control panel includes the pseudotypes from the neutralization sensitive isolate, NL43, and the less neutralization sensitive primary isolate JRcsf. The negative virus (specificity) control consists of pseudotype viruses prepared from the envelope of the amphitropic murine leukemia virus.

108051_006 wtS = test system: 108051_006 wtS
Text: as §1, §2

108060 clone 022 wtR = details: 108060_022 wtR; 50% inhibition in target cell infection
Text: as §1, §2

108060 clone 024 wtS = test system: 108060 clone 024 wtS
Text: as §1, §2

108069_005 wtR = test system: 108069_005 wtR
Text: as §1, §2

108069_011 wtS = test system: 108069_011 wtS
Text: as §1, §2

108051_005 Q655R = 108051_005 Q655R (numbering of 108060)
Text: as §1
(§3) Sequencing and mutagenesis. Plasmids containing cloned envelope glycoproteins were sequenced using fluorescently labeled dideoxynucleotides at either Monogram Biosciences or the University of California Sequencing Facility (Berkeley, Calif.) using capillary electrophoresis sequencing devices (Applied Biosystems, Foster City, Calif.). HIV envelope glycoprotein sequences were mutagenized by a mismatched primer method using the QuikChange Mutagenesis kit (Stratagene, San Diego). All mutations were confirmed by DNA sequencing. The numbering of amino acids is made with reference to the sequence of gp160 from clone 022 of from subject 108060. Position 655 corresponds to position 653 of the HXB2 reference strain of HIV-1.
as §2

108060_022 Q655R = test system: 108060_022 Q655R
Text: as §1, §3, §2

108060_024 R655Q = test system: 108060_024 R655Q
Text: as §1, §3, §2

108069_005 Q655R = test system: 108069_005 Q655R
Text: as §1, §3, §2

## enfuvirtide
108051_005 wtR
  IC50 of indicated MAb or fusion inhibitor: 0.088 µg/mL
108051_006 wtS
  IC50 of indicated MAb or fusion inhibitor: 0.008 µg/mL
108060 clone 022 wtR
  IC50 of indicated MAb or fusion inhibitor: 0.068 µg/mL
108060 clone 024 wtS; 108060_024 wtS
  IC50 of indicated MAb or fusion inhibitor: 0.019 µg/mL
108060 clone 024 wtS; clone 024 compared with clone 022 of subject 108060
  Fold more sensitive to neutralization: 3.5 fold
108069_005 wtR
  IC50 of indicated MAb or fusion inhibitor: 0.071 µg/mL
108069_011 wtS
  IC50 of indicated MAb or fusion inhibitor: 0.145 µg/mL
108051_005 Q655R
  IC50 of indicated MAb or fusion inhibitor: 0.036 µg/mL
108060_022 Q655R; 108060_022 Q655R
  IC50 of indicated MAb or fusion inhibitor: 0.004 µg/mL
108060_022 Q655R; 108060_022 Q655R compared with wild-type clone 022
  Fold increase in neutralization sensitivity: 17 fold
108060_024 R655Q
  IC50 of indicated MAb or fusion inhibitor: 0.130 µg/mL
108069_005 Q655R; 108069_005 Q655R (numbering of 108060)
  IC50 of indicated MAb or fusion inhibitor: 0.011 µg/mL
108069_005 Q655R; Q to R at position corresponding to 655 in the 108069 virus, versus parental virus
  Fold increase in sensitivity: more than 17 fold
